Experimental data as given in the kinase profiling compilation of Christmann-Franck et al. (2016).

Tests used:
Experiment in all cases: KINOMEscan competition binding
Settings in all cases: compound 1.0 µM
MAPK10 (human) = MAPK10 (human) (UniProt P53779)
TEK (human) = TEK (human) (UniProt Q02763)
MAPKAPK5 (human) = MAPKAPK5 (human) (UniProt Q8IW41)
MINK1 (human) = MINK1 (human) (UniProt Q8N4C8)
CSNK1A1 (human) = CSNK1A1 (human) (UniProt P48729)
DSTYK (human) = DSTYK (human) (UniProt Q6XUX3)
ULK1 (human) = ULK1 (human) (UniProt O75385)
LATS1 (human) = LATS1 (human) (UniProt O95835)
[1] = tested on: FLT3 (human), P36888 [K663Q]
MYO3B (human) = MYO3B (human) (UniProt Q8WXR4)
NLK (human) = NLK (human) (UniProt Q9UBE8)
CPK1 (P.falciparum) = tested on: CPK1 (P.falciparum)
[2] = tested on: PIK3CA (human), P42336 [Q546K]
BMPR2 (human) = BMPR2 (human) (UniProt Q13873)
Chain of BMPR2 (human) (Q13873 whole entry, looked up): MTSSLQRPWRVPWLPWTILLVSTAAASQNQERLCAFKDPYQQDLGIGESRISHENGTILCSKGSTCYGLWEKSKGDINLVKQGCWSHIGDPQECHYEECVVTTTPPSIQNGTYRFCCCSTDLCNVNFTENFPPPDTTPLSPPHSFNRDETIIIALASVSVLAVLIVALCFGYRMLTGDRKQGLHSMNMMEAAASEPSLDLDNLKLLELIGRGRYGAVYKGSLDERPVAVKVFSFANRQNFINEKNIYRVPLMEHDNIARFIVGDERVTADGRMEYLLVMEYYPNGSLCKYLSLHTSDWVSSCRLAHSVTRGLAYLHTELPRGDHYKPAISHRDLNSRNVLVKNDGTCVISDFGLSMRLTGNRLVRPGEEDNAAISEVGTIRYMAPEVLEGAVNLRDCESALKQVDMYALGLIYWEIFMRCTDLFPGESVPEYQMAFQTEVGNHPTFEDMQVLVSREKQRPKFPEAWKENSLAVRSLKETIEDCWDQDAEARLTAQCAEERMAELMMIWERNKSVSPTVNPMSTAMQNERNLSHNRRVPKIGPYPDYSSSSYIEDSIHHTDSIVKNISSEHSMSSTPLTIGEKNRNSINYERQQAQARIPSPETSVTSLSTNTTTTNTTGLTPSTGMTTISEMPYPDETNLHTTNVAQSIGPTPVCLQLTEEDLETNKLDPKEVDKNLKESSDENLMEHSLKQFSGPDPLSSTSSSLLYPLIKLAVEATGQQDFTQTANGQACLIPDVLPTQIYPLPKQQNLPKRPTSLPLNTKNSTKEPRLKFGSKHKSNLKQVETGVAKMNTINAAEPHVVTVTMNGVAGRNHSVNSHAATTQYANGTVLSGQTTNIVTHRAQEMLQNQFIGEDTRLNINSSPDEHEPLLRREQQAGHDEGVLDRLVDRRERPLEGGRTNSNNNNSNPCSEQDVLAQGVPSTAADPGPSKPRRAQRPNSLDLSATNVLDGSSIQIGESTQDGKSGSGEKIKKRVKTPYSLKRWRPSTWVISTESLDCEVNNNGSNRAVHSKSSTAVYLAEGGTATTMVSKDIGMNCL

[3] = tested on: FLT3 (human), P36888 [D835Y]
CDK15 (human) = CDK15 (human) (UniProt Q96Q40)
STK32A (human) = STK32A (human) (UniProt Q8WU08)
TSSK1B (human) = TSSK1B (human) (UniProt Q9BXA7)
Chain of TSSK1B (human) (Q9BXA7 whole entry, looked up): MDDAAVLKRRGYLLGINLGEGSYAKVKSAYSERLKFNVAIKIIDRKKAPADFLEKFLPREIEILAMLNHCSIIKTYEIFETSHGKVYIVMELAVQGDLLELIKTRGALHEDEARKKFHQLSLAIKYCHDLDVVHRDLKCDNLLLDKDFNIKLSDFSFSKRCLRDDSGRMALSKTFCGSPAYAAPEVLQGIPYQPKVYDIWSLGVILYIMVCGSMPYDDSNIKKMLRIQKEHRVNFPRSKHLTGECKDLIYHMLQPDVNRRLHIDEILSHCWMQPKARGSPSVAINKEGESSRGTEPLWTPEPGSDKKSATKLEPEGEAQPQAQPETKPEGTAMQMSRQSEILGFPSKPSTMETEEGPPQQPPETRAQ

KIT (human) = KIT (human) (UniProt P10721)
AURKB (human) = AURKB (human) (UniProt Q96GD4)
CDC42BPG (human) = CDC42BPG (human) (UniProt Q6DT37)
ACVR2A (human) = ACVR2A (human) (UniProt P27037)
MARK2 (human) = MARK2 (human) (UniProt Q7KZI7)
PAK7 (human) = PAK7 (human) (UniProt Q9P286)
CDK16 (human) = CDK16 (human) (UniProt Q00536)
FLT3 (human) = FLT3 (human) (UniProt P36888)
MAP4K3 (human) = MAP4K3 (human) (UniProt Q8IVH8)
EIF2AK1 (human) = EIF2AK1 (human) (UniProt Q9BQI3)
MAPK9 (human) = MAPK9 (human) (UniProt P45984)
STK33 (human) = STK33 (human) (UniProt Q9BYT3)
Chain of STK33 (human) (Q9BYT3 whole entry, looked up): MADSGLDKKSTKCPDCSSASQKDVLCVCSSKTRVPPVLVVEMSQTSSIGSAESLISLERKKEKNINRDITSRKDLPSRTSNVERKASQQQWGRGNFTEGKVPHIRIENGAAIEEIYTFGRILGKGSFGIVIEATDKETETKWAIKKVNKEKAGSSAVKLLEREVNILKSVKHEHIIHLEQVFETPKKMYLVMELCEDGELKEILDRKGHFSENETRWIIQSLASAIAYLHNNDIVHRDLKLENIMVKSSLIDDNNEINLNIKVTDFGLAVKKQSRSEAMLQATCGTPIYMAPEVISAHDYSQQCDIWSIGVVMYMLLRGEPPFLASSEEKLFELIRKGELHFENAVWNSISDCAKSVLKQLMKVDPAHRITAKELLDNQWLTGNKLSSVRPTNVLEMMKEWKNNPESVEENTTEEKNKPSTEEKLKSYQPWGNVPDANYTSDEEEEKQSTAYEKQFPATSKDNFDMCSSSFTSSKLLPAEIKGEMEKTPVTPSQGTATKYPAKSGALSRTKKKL

NTRK3 (human) = NTRK3 (human) (UniProt Q16288)
HIPK2 (human) = HIPK2 (human) (UniProt Q9H2X6)
MAPK13 (human) = MAPK13 (human) (UniProt O15264)
MET (human) = MET (human) (UniProt P08581)
TNNI3K (human) = TNNI3K (human) (UniProt Q59H18)
CDK3 (human) = CDK3 (human) (UniProt Q00526)
PKN3 (M.tuberculosis) = PKN3 (M.tuberculosis) (UniProt Q6P5Z2)
DCLK3 (human) = DCLK3 (human) (UniProt Q9C098)
Chain of DCLK3 (human) (Q9C098 whole entry, looked up): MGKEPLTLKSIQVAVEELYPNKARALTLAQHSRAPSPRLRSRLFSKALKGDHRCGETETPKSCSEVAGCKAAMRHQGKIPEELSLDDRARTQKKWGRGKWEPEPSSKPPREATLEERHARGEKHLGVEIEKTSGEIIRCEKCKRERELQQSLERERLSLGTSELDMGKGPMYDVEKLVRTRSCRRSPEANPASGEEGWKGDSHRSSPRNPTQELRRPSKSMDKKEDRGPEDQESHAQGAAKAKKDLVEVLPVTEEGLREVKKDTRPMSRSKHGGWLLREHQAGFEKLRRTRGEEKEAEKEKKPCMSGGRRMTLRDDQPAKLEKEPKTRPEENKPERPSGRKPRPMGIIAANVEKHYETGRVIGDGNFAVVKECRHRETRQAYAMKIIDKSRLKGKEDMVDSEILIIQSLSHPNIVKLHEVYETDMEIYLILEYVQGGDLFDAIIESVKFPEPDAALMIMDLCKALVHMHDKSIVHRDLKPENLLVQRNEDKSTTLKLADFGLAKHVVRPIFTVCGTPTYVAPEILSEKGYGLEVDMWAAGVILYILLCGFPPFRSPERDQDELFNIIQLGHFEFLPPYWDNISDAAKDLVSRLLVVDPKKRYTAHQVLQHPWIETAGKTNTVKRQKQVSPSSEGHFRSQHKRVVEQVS

MAP2K3 (human) = MAP2K3 (human) (UniProt P46734)
ULK3 (human) = ULK3 (human) (UniProt Q6PHR2)
PTK2 (human) = PTK2 (human) (UniProt Q05397)
MAPK3 (human) = MAPK3 (human) (UniProt P27361)
MAP3K10 (human) = MAP3K10 (human) (UniProt Q02779)

Chain of MINK1 (human) (Q8N4C8 whole entry, looked up): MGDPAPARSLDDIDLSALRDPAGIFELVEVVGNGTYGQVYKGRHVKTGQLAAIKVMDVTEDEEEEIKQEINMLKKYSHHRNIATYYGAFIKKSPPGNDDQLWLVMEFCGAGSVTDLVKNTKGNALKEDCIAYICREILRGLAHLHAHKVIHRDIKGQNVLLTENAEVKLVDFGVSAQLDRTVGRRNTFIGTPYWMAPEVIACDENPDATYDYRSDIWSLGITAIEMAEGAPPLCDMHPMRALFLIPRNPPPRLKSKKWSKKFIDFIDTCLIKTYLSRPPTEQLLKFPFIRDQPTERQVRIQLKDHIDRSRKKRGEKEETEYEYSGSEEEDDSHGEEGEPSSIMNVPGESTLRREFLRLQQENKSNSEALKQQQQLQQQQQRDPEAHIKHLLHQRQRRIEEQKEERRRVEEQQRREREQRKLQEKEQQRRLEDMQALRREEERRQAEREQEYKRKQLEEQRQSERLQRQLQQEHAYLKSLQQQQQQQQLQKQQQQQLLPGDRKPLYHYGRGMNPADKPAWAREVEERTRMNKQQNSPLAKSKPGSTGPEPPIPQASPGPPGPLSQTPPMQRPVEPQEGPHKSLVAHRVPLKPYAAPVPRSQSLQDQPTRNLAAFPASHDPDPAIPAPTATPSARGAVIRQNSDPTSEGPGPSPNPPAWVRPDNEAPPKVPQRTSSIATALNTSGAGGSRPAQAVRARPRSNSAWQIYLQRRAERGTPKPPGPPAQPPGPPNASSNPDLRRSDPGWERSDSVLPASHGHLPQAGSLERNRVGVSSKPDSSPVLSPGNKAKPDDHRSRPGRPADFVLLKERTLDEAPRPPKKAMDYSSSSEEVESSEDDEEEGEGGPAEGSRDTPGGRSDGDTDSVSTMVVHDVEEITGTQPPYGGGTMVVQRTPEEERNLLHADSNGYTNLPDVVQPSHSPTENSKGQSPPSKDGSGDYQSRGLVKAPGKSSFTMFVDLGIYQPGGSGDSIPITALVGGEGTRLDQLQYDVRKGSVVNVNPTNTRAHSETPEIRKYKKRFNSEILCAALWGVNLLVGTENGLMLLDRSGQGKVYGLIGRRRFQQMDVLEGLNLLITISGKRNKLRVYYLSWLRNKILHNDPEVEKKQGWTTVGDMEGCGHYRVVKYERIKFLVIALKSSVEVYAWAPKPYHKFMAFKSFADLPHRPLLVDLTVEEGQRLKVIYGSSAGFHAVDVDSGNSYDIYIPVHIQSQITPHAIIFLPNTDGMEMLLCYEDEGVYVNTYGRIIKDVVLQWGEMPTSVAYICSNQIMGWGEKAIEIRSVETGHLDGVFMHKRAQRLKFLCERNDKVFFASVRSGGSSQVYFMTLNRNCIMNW
Chain of TEK (human) (Q02763 whole entry, looked up): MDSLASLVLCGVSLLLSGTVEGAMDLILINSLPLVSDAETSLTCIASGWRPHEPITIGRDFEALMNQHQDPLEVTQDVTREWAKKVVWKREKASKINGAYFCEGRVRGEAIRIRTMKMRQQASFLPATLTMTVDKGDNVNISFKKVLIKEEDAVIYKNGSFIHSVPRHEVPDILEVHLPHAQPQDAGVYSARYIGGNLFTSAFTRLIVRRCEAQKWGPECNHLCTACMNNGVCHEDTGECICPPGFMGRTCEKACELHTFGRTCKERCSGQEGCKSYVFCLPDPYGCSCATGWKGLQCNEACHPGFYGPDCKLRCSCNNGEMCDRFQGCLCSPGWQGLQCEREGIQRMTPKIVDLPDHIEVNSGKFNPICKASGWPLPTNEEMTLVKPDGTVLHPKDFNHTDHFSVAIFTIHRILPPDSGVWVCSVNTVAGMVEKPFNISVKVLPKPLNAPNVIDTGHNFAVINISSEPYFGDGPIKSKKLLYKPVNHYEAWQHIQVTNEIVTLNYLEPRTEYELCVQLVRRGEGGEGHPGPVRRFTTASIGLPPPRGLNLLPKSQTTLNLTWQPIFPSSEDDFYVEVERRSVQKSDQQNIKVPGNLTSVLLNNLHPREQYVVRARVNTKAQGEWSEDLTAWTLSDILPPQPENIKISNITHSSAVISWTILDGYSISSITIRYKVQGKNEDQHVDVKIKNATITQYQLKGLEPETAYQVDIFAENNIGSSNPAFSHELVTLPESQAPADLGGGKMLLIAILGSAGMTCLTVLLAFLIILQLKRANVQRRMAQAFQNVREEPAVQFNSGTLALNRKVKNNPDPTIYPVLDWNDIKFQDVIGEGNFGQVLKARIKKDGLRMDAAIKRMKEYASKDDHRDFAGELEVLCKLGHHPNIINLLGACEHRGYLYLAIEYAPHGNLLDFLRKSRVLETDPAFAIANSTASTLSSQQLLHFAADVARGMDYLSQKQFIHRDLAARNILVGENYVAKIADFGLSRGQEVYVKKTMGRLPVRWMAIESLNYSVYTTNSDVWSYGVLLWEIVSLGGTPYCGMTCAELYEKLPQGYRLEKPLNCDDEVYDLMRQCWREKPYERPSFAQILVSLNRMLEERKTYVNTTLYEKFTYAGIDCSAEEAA

SMILES: Cc1cc(NC(=O)c2cccc(NC(=O)/C=C/CN(C)C)c2)ccc1Nc1nccc(-c2cccnc2)n1
- kinase still bound, per cent of control (MAPK10 (human)): 0%
- kinase still bound, per cent of control (TEK (human)): 76%
- kinase still bound, per cent of control (MAPKAPK5 (human)): 74%
- kinase still bound, per cent of control (MINK1 (human)): 71%
- kinase still bound, per cent of control (CSNK1A1 (human)): 73%
- kinase still bound, per cent of control (DSTYK (human)): 100%
- kinase still bound, per cent of control (ULK1 (human)): 100%
- kinase still bound, per cent of control (LATS1 (human)): 91%
- kinase still bound, per cent of control [1]: 75%
- kinase still bound, per cent of control (MYO3B (human)): 89%
- kinase still bound, per cent of control (NLK (human)): 70%
- kinase still bound, per cent of control (CPK1 (P.falciparum)): 100%
- kinase still bound, per cent of control [2]: 100%
- kinase still bound, per cent of control (BMPR2 (human)): 77%
- kinase still bound, per cent of control [3]: 58%
- kinase still bound, per cent of control (CDK15 (human)): 100%
- kinase still bound, per cent of control (STK32A (human)): 78%
- kinase still bound, per cent of control (TSSK1B (human)): 100%
- kinase still bound, per cent of control (KIT (human)): 3.5%
- kinase still bound, per cent of control (AURKB (human)): 82%
- kinase still bound, per cent of control (CDC42BPG (human)): 86%
- kinase still bound, per cent of control (ACVR2A (human)): 100%
- kinase still bound, per cent of control (MARK2 (human)): 77%
- kinase still bound, per cent of control (PAK7 (human)): 88%
- kinase still bound, per cent of control (CDK16 (human)): 100%
- kinase still bound, per cent of control (FLT3 (human)): 77%
- kinase still bound, per cent of control (MAP4K3 (human)): 100%
- kinase still bound, per cent of control (EIF2AK1 (human)): 100%
- kinase still bound, per cent of control (MAPK9 (human)): 0%
- kinase still bound, per cent of control (STK33 (human)): 100%
- kinase still bound, per cent of control (NTRK3 (human)): 79%
- kinase still bound, per cent of control (HIPK2 (human)): 71%
- kinase still bound, per cent of control (MAPK13 (human)): 100%
- kinase still bound, per cent of control (MET (human)): 100%
- kinase still bound, per cent of control (TNNI3K (human)): 100%
- kinase still bound, per cent of control (CDK3 (human)): 100%
- kinase still bound, per cent of control (PKN3 (M.tuberculosis)): 100%
- kinase still bound, per cent of control (DCLK3 (human)): 100%
- kinase still bound, per cent of control (MAP2K3 (human)): 95%
- kinase still bound, per cent of control (ULK3 (human)): 40%
- kinase still bound, per cent of control (PTK2 (human)): 11%
- kinase still bound, per cent of control (MAPK3 (human)): 100%
- kinase still bound, per cent of control (MAP3K10 (human)): 87%

SMILES: CN(C)C/C=C/C(=O)Nc1cccc(C(=O)Nc2ccc(Nc3nccc(/C(C#N)=C4\Nc5ccccc5S4)n3)cc2)c1
- kinase still bound, per cent of control (MAPK10 (human)): 0.05%
- kinase still bound, per cent of control (TEK (human)): 100%
- kinase still bound, per cent of control (MAPKAPK5 (human)): 100%
- kinase still bound, per cent of control (MINK1 (human)): 100%
- kinase still bound, per cent of control (CSNK1A1 (human)): 75%
- kinase still bound, per cent of control (DSTYK (human)): 100%
- kinase still bound, per cent of control (ULK1 (human)): 92%
- kinase still bound, per cent of control (LATS1 (human)): 89%
- kinase still bound, per cent of control [1]: 37%
- kinase still bound, per cent of control (MYO3B (human)): 100%
- kinase still bound, per cent of control (NLK (human)): 100%
- kinase still bound, per cent of control (CPK1 (P.falciparum)): 96%
- kinase still bound, per cent of control [2]: 100%
- kinase still bound, per cent of control (BMPR2 (human)): 50%
- kinase still bound, per cent of control [3]: 73%
- kinase still bound, per cent of control (CDK15 (human)): 100%
- kinase still bound, per cent of control (STK32A (human)): 100%
- kinase still bound, per cent of control (TSSK1B (human)): 100%
- kinase still bound, per cent of control (KIT (human)): 12%
- kinase still bound, per cent of control (AURKB (human)): 83%
- kinase still bound, per cent of control (CDC42BPG (human)): 88%
- kinase still bound, per cent of control (ACVR2A (human)): 79%
- kinase still bound, per cent of control (MARK2 (human)): 100%
- kinase still bound, per cent of control (PAK7 (human)): 69%
- kinase still bound, per cent of control (CDK16 (human)): 100%
- kinase still bound, per cent of control (FLT3 (human)): 23%
- kinase still bound, per cent of control (MAP4K3 (human)): 91%
- kinase still bound, per cent of control (EIF2AK1 (human)): 100%
- kinase still bound, per cent of control (MAPK9 (human)): 0.05%
- kinase still bound, per cent of control (STK33 (human)): 100%
- kinase still bound, per cent of control (NTRK3 (human)): 97%
- kinase still bound, per cent of control (HIPK2 (human)): 60%
- kinase still bound, per cent of control (MAPK13 (human)): 86%
- kinase still bound, per cent of control (MET (human)): 92%
- kinase still bound, per cent of control (TNNI3K (human)): 100%
- kinase still bound, per cent of control (CDK3 (human)): 100%
- kinase still bound, per cent of control (PKN3 (M.tuberculosis)): 53%
- kinase still bound, per cent of control (DCLK3 (human)): 100%
- kinase still bound, per cent of control (MAP2K3 (human)): 88%
- kinase still bound, per cent of control (ULK3 (human)): 100%
- kinase still bound, per cent of control (PTK2 (human)): 100%
- kinase still bound, per cent of control (MAPK3 (human)): 100%
- kinase still bound, per cent of control (MAP3K10 (human)): 68%
